{
  "source": "ChEMBL document CHEMBL5726383",
  "about": "“Heteroaryls and uses thereof” (2017)",
  "target": "Phosphatidylinositol 3-kinase catalytic subunit type 3 (Homo sapiens, UniProt Q8NEB9)",
  "sequence (Q8NEB9 whole entry)": "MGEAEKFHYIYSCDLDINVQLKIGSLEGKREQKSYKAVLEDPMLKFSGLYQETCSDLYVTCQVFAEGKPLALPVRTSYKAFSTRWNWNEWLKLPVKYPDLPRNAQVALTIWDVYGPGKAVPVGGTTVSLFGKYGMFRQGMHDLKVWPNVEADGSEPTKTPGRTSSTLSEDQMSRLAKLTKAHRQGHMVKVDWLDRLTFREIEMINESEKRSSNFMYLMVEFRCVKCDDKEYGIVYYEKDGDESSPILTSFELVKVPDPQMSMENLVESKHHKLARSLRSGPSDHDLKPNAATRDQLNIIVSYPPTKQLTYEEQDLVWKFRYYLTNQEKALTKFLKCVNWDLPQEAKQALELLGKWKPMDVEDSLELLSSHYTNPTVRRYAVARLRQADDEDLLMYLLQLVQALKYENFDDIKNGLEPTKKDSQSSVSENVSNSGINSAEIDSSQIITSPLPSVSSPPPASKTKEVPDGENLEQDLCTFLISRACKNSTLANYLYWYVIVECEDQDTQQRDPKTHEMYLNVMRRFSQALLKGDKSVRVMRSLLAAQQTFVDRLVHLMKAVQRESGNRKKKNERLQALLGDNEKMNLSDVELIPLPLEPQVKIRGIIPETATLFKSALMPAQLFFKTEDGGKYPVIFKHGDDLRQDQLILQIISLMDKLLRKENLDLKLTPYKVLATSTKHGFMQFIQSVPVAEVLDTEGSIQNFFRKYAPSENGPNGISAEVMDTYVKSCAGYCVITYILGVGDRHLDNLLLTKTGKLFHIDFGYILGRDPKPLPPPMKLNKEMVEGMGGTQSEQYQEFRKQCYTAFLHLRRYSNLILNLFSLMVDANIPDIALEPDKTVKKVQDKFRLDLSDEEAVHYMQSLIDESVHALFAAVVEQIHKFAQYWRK",
  "assay": "VPS34 Enzyme Assays: 100 nL compounds in DMSO are added to wells of a 384 well microtitre plate (Greiner 780076). At room temperature: 5 ul VPS34 reaction buffer (Invitrogen Assay Buffer Q (diluted 1 in 5 with nanopure water) plus 2 mM DTT and 2 mM MnCl2) containing ATP (20 uM, Promega) and 200 uM PI-PS substrate (Invitrogen PV5122) is added followed immediately by 5 ul VPS34 reaction buffer (as above) containing VPS34 (5 nM, Millennium Protein Sciences Group) and the mixture is incubated with shaking at room temperature for 1 hour. Then 5 ul VPS34 stop-detect mix (as per Invitrogen Adapta Assay kit (PV5009) instructions (contains kinase quench buffer, TR-FRET buffer, Adapta Eu anti-ADP antibody and Alexa Fluor 647 ADP tracer)) is added to quench the reaction. The plates are then incubated for 30 minutes at room temperature with shaking and then read on a BMG PheraStar Plus reader.",
  "data": [
    {"smiles": "CC(=O)Nc1cc(-c2cnc(C)c(NS(=O)(=O)c3ccc(C)cc3Cl)c2)ccn1", "values": [
      {"measurement": "IC50", "result": "< 10", "unit": "nM"}
    ]}
  ]
}
